Laboratory results reported in US20230183259A1, “Crystal Form Of Thiofuran Pyridazine Compound, Preparation Method Therefor And Application Thereof” (ZHEJIANG MEDICINE CO., LTD. XINCHANG PHARMACEUTICAL FACTORY, priority 2020, published 2023).

Assays:
[1] = acceleration test (stability); assay type: physicochemical; details: 40° C.±2° C., relative humidity 75%±5%
Protocol: (§1) Stability tests were performed on the samples of Examples 1, 2, 3, 4 and 5. […] Please refer to the results of the acceleration test (40° C.±2° C., relative humidity 75%±5%) of Table 1 and the results of the long-term stability test (25° C.±2° C., relative humidity 60%±10%) of Table 2.

[2] = long-term stability test; assay type: physicochemical; details: 25° C.±2° C., relative humidity 60%±10%
Protocol: as §1

## (S)-2-(4-fluorophenyl)-4-(piperidine-3-aminomethyl)thieno[2,3-d]pyridazine-7-carboxamide hydrochloride [Example 110601-1]
[1]; 0 month
  (%) Impurity B (%): 0.00%
  Crystal form: unchanged
  appearance: yellow crystalline powder
[1]; 0 month, hydrochloride
  Enantiomer (%): 0.11%
  Impurity A (%): 0.36%
  Impurity C (%): 0.03%
  Loss on drying (%): 7.1%
  Single largest impurity (%): 0.02%
  Total relevant substances (%): 0.47%
  content(%): 99.1%
[1]; 1 month
  Crystal form: unchanged
  Impurity C (%): 0.02%
  appearance: yellow crystalline powder
[1]; 1 month, hydrochloride
  (%) Impurity B (%): 0.00%
  Enantiomer (%): 0.13%
  Impurity A (%): 0.34%
  Loss on drying (%): 7.1%
  Single largest impurity (%): 0.02%
  Total relevant substances (%): 0.46%
  content(%): 100.5%
[1]; 2 months
  Crystal form: unchanged
  appearance: yellow crystalline powder
[1]; 2 months, hydrochloride
  (%) Impurity B (%): 0.00%
  Enantiomer (%): 0.11%
  Impurity A (%): 0.35%
  Impurity C (%): 0.02%
  Loss on drying (%): 7.1%
  Single largest impurity (%): 0.02%
  Total relevant substances (%): 0.44%
  content(%): 100.6%
[1]; 3 months
  (%) Impurity B (%): 0.00%
  Crystal form: unchanged
  Impurity C (%): 0.02%
  appearance: yellow crystalline powder
[1]; 3 months, hydrochloride
  Enantiomer (%): 0.1%
  Impurity A (%): 0.33%
  Loss on drying (%): 7.0%
  Single largest impurity (%): 0.03%
  Total relevant substances (%): 0.44%
  content(%): 99.6%
[1]; 6 months
  (%) Impurity B (%): 0.00%
  Crystal form: unchanged
  Impurity C (%): 0.02%
  appearance: yellow crystalline powder
[1]; 6 months, hydrochloride
  Enantiomer (%): 0.08%
  Impurity A (%): 0.30%
  Loss on drying (%): 7.0%
  Single largest impurity (%): 0.03%
  Total relevant substances (%): 0.41%
  content(%): 99.6%
[2]; 0 month
  Crystal form: unchanged
  ImpurityB(%): 0.00%
[2]; 0 month, hydrochloride
  Content (calculated by dried product )(%): 99.1%
  Enantiomers (%): 0.11%
  ImpurityA(%): 0.36%
  ImpurityC(%): 0.03%
  Loss on drying (%): 7.1%
  Single largest impurity (%): 0.02%
  Total relevant substances (%): 0.47%
  appearance: yellow crystalline powder
[2]; 3 months
  Crystal form: unchanged
  ImpurityB(%): 0.00%
  ImpurityC(%): 0.02%
[2]; 3 months, hydrochloride
  Content (calculated by dried product )(%): 99.9%
  Enantiomers (%): 0.11%
  ImpurityA(%): 0.35%
  Loss on drying (%): 7.0%
  Single largest impurity (%): 0.02%
  Total relevant substances (%): 0.45%
  appearance: yellow crystalline powder
[2]; 6 months
  Crystal form: unchanged
  ImpurityB(%): 0.00%
[2]; 6 months, hydrochloride
  Content (calculated by dried product )(%): 99.8%
  Enantiomers (%): 0.08%
  ImpurityA(%): 0.34%
  ImpurityC(%): 0.03%
  Loss on drying (%): 7.0%
  Single largest impurity (%): 0.02%
  Total relevant substances (%): 0.41%
  appearance: yellow crystalline powder
[2]; 9 months
  Crystal form: unchanged
  ImpurityC(%): 0.02%
[2]; 9 months, hydrochloride
  Content (calculated by dried product )(%): 99.8%
  Enantiomers (%): 0.08%
  ImpurityA(%): 0.34%
  ImpurityB(%): 0.02%
  Loss on drying (%): 7.0%
  Single largest impurity (%): 0.03%
  Total relevant substances (%): 0.47%
  appearance: yellow crystalline powder
[2]; 12 months
  Crystal form: unchanged
  ImpurityB(%): 0.01%
  Single largest impurity (%): 0.02%
[2]; 12 months, hydrochloride
  Content (calculated by dried product )(%): 99.4%
  Enantiomers (%): 0.1%
  ImpurityA(%): 0.34%
  ImpurityC(%): 0.02%
  Loss on drying (%): 7.1%
  Total relevant substances (%): 0.43%
  appearance: yellow crystalline powder
[2]; 18 months
  Crystal form: unchanged
  ImpurityB(%): 0.00%
  Single largest impurity (%): 0.02%
[2]; 18 months, hydrochloride
  Content (calculated by dried product )(%): 99.5%
  Enantiomers (%): 0.07%
  ImpurityA(%): 0.37%
  ImpurityC(%): 0.04%
  Loss on drying (%): 7.0%
  Total relevant substances (%): 0.45%
  appearance: yellow crystalline powder
[2]; 24 months
  Crystal form: unchanged
  Enantiomers (%): 0.08%
  ImpurityB(%): 0.00%
  ImpurityC(%): 0.02%
  Single largest impurity (%): 0.02%
[2]; 24 months, hydrochloride
  Content (calculated by dried product )(%): 98.3%
  ImpurityA(%): 0.37%
  Loss on drying (%): 7.4%
  Total relevant substances (%): 0.43%
  appearance: yellow crystalline powder
[2]; 36 months
  Crystal form: unchanged
  ImpurityC(%): 0.02%
  Single largest impurity (%): 0.02%
[2]; 36 months, hydrochloride
  Content (calculated by dried product )(%): 99.9%
  Enantiomers (%): 0.07%
  ImpurityA(%): 0.38%
  ImpurityB(%): 0.02%
  Loss on drying (%): 7.3%
  Total relevant substances (%): 0.50%
  appearance: yellow crystalline powder
